Data: patent publication US7625926B2, “P-glycoprotein inhibitor, method for preparing the same and pharmaceutical composition comprising the same” (Hanmi Pharm. Co., Ltd, priority 2003, dated 2009)

test system: MCF-7/Dox cell, which is MCF-7 expressing p-glycoprotein; settings: enhancement of anticancer activity of paclitaxel against MCF7/Dox; ED50 of paclitaxel alone / ED50 with 50 nM test compound
Procedure: The cells were subcultured in 5% FBS (fetal bovine serum)/RPMI1640 medium supplemented with glutamine 2 mmol, sodium bicarbonate 3.7 g/L and gentamicin 10 mg/L at 37° C. in 5% CO2 incubator under 100% humidity, and collected using a 0.25% trypsin solution containing 3 mM 1,2-cyclohenxandiamine tetraacetic acid.
The collected cells were plated on a 96 well flat-bottomed plate at a density of 2×10^3 cells/well, and incubated in the same medium for 24 hours. Paclitaxel, an anticancer agent, was diluted with the same medium to obtain 10^−11˜10^−6 M test solutions. […] After incubating for 72 hours, the culture medium was removed, each well was treated with 10% trichloroacetic acid for 1 hour to fix the cells, washed with water, and dried at room temperature. After adding a dyeing solution containing 1% acetic acid with 0.4% SRB (sulforhodamine B) thereto, the wells were kept at room temperature for 30 min, and washed with 1% acetic acid to remove remaining SRB. […] Also, the enhancement of the anticancer activity of paclitaxel against MCF7/Dox (resistant cancer cells) was measured by determining ED^PAC50/ED50, wherein ED^PAC50 is the value determined for the case of paclitaxel alone.

| Compound | ED50^PAC/ED50 |
| --- | --- |
| COc1cc2c(cc1OC)CN(CCc1ccc(-n3nnc(-c4cc(OC)c(OC)cc4NC(=O)c4cnccn4)n3)cc1)CC2 [Example 12, pyrazine-2-carboxylic acid [2-(2-{4-[2-(6,7-dimethoxy-3,4-dihydro-1H-isoquinolin-2-yl)-ethyl]-phenyl}-2H-tetrazol-5-yl)-4,5-dimethoxy-phenyl]-amide] | 3.0 |
| COc1cc2c(cc1OC)CN(CCc1ccc(-n3nnc(-c4cc(OC)c(OC)cc4NC(=O)c4ccccc4)n3)cc1)CC2 [Example 13, N-[2-(2-{4-[2-(6,7-dimethoxy-3,4-dihydro-1H-isoquinolin-2-yl)-ethyl]-phenyl}-2H-tetrazol-5-yl)-4,5-dimethoxy-phenyl]-benzamide] | 3.4 |
| COc1cc2c(cc1OC)CN(CCc1ccc(-n3nnc(-c4cc(OC)c(OC)cc4NC(=O)c4ccc5ccccc5c4)n3)cc1)CC2 [Example 14, naphthalene-2-carboxylic acid [2-(2-{4-[2-(6,7-dimethoxy-3,4-dihydro-1H-isoquinolin-2-yl)-ethyl]-phenyl}-2H-tetrazol-5-yl)-4,5-dimethoxy-phenyl]-amide] | 2.6 |
| COc1cc2c(cc1OC)CN(CCc1ccc(-n3nnc(-c4cc(OC)c(OC)cc4NC(=O)c4ccccc4F)n3)cc1)CC2 [Example 15] | 4.1 |
| COc1cc2c(cc1OC)CN(CCc1ccc(-n3nnc(-c4cc(OC)c(OC)cc4NC(=O)c4cccc(F)c4)n3)cc1)CC2 [Example 16, N-[2-(2-{4-[2-(6,7-dimethoxy-3,4-dihydro-1H-isoquinolin-2-yl)-ethyl]-phenyl}-2H-tetrazol-5-yl)-4,5-dimethoxy-phenyl]-3-fluoro-benzamide] | 6.7 |
| COc1cc2c(cc1OC)CN(CCc1ccc(-n3nnc(-c4cc(OC)c(OC)cc4NC(=O)c4ccc(F)cc4)n3)cc1)CC2 [Example 17, N-[2-(2-{4-[2-(6,7-dimethoxy-3,4-dihydro-1H-isoquinolin-2-yl)-ethyl]-phenyl}-2H-tetrazol-5-yl)-4,5-dimethoxy-phenyl]-4-fluoro-benzamide] | 4.0 |
| COc1cc2c(cc1OC)CN(CCc1ccc(-n3nnc(-c4cc(OC)c(OC)cc4NC(=O)c4ccc(F)c(F)c4)n3)cc1)CC2 [Example 18, N-[2-(2-{4-[2-(6,7-dimethoxy-3,4-dihydro-1H-isoquinolin-2-yl)-ethyl]-phenyl}-2H-tetrazol-5-yl)-4,5-dimethoxy-phenyl]-3,4-difluoro-benzamide] | 3.7 |
| COc1cc2c(cc1OC)CN(CCc1ccc(-n3nnc(-c4cc(OC)c(OC)cc4NC(=O)c4ccsc4)n3)cc1)CC2 [Example 19, thiophene-3-carboxylic acid [2-(2-{4-[2-(6,7-dimethoxy-3,4-dihydro-1H-isoquinolin-2-yl)-ethyl]-phenyl}-2H-tetrazol-5-yl)-4,5-dimethoxy-phenyl]-amide] | 4.5 |
| COc1cc2c(cc1OC)CN(CCc1ccc(-n3nnc(-c4cc(OC)c(OC)cc4NC(=O)c4ccoc4)n3)cc1)CC2 [Example 20, furan-3-carboxylic acid [2-(2-{4-[2-(6,7-dimethoxy-3,4-dihydro-1H-isoquinolin-2-yl)-ethyl]-phenyl}-2H-tetrazol-5-yl)-4,5-dimethoxy-phenyl]-amide] | 3.5 |
| COc1cc2c(cc1OC)CN(CCc1ccc(-n3nnc(-c4cc(OC)c(OC)cc4NC(=O)c4cc(=O)c5ccccc5o4)n3)cc1)CC2 [Example 21, 4-oxo-4H-chromen-2-carboxylic acid [2-(2-{4-[2-(6,7-dimethoxy-3,4-dihydro-1H-isoquinolin-2-yl)-ethyl]-phenyl}-2H-tetrazol-5-yl)-4,5-dimethoxy-phenyl]-amide] | 60.1 |
| COc1cc2c(cc1OC)CN(CCc1ccc(-n3nnc(-c4cc(OC)c(OC)cc4NC(=O)c4cc(=O)c5cc(C)ccc5o4)n3)cc1)CC2 [Example 22, 6-methyl-4-oxo-4H-chromene-2-carboxylic acid [2-(2-{4-[2-(6,7-dimethoxy-3,4-dihydro-1H-isoquinolin-2-yl)-ethyl]-phenyl}-2H-tetrazol-5-yl)-4,5-dimethoxy-phenyl]-amide] | 73.4 |
| COc1cc2c(cc1OC)CN(CCc1ccc(-n3nnc(-c4cc(OC)c(OC)cc4NC(=O)c4cc(=O)c5c(OC)cccc5o4)n3)cc1)CC2 [Example 23, 5-methoxy-4-oxo-4H-chromene-2-carboxylic acid [2-(2-{4-[2-(6,7-dimethoxy-3,4-dihydro-1H-isoquinolin-2-yl)-ethyl]-phenyl}-2H-tetrazol-5-yl)-4,5-dimethoxy-phenyl]-amide] | 49.9 |
| COc1cc2c(cc1OC)CN(CCc1ccc(-n3nnc(-c4cc(OC)c(OC)cc4NC(=O)c4cc(=O)c5cc(F)ccc5o4)n3)cc1)CC2 [Example 24, 6-fluoro-4-oxo-4H-chromene-2-carboxylic acid [2-(2-{4-[2-(6,7-dimethoxy-3,4-dihydro-1H-isoquinolin-2-yl)-ethyl]-phenyl}-2H-tetrazol-5-yl)-4,5-dimethoxy-phenyl]-amide] | 39.3 |
| COc1cc2c(cc1OC)CN(CCc1ccc(-n3nnc(-c4cc(OC)c(OC)cc4NC(=O)c4cc(=O)c5cc(Br)ccc5o4)n3)cc1)CC2 [Example 25, 6-bromo-4-oxo-4H-chromene-2-carboxylic acid [2-(2-{4-[2-(6,7-dimethoxy-3,4-dihydro-1H-isoquinolin-2-yl)-ethyl]-phenyl}-2H-tetrazol-5-yl)-4,5-dimethoxy-phenyl]-amide] | 28.6 |
| COc1cc2c(cc1OC)CN(CCc1ccc(-n3nnc(-c4cc(OC)c(OC)cc4NC(=O)c4cnnc5ccccc45)n3)cc1)CC2 [Example 26, cinoline-4-carboxylic acid [2-(2-{4-[2-(6,7-dimethoxy-3,4-dihydro-1H-isoquinolin-2-yl)-ethyl]-phenyl}-2H-tetrazol-5-yl)-4,5-dimethoxy-phenyl]-amide] | 24.0 |
| COc1cc2c(cc1OC)CN(CCc1ccc(-n3nnc(-c4cc(OC)c(OC)cc4NC(=O)c4coc5ccccc5c4=O)n3)cc1)CC2 [Example 27, 4-oxo-4H-chromene-3-carboxylic acid [2-(2-{4-[2-(6,7-dimethoxy-3,4-dihydro-1H-isoquinolin-2-yl)-ethyl]-phenyl}-2H-tetrazol-5-yl)-4,5-dimethoxy-phenyl]-amide] | 2.1 |
| COc1cc2c(cc1OC)CN(CCc1ccc(-n3nnc(-c4cc(F)c(F)cc4NC(=O)c4cnc5ccccc5c4)n3)cc1)CC2 [Example 28, quinoline-3-carboxylic acid [2-(2-{4-[2-(6,7-dimethoxy-3,4-dihydro-1H-isoquinolin-2-yl)-ethyl]-phenyl}-2H-tetrazol-5-yl)-4,5-difluoro-phenyl]-amide] | 19.9 |
| COc1cc2c(cc1OC)CN(CCSc1ccc(-n3nnc(-c4cc(OC)c(OC)cc4NC(=O)c4cnc5ccccc5c4)n3)cc1)CC2 [Example 29, quinoline-3-carboxylic acid [2-(2-{4-[2-(6,7-dimethoxy-3,4-dihydro-1H-isoquinolin-2-yl)-ethylsulfanyl]-phenyl}-2H-tetrazol-5-yl)-4,5-dimethoxy-phenyl]-amide] | 21.3 |
| COc1cc2c(cc1OC)CN(CCc1ccc(-n3nnc(-c4cc(OC)c(OC)cc4NC(=O)c4cnc5ccccc5c4)n3)cc1)CC2 [Example 30] | 2.6 |
